Residue numbers refer to the chain shown, from its start. Names may count otherwise.
Tests used:
[1] = Plasma estradiol levels after s.c. estradiol benzoate; type: in vivo, rat; details: OVX rats, mean±SEM
TG neurons [2] = experiment: PRL release from cultured TG neurons (RIA); type: cell-based, rat; details: 300 nM capsaicin or 25 mM KCl; for release of immunoreactive PRL: neurons from OVX rats cultured in the absence of E2; for PRL released from TG neurons: neurons of proestrous rats cultured with 50 nM E2, 15 min
Method: PRL is known to be released from cells of the anterior pituitary (Zacur et al. 1976) and from extrapituitary sites (Ben-Jonathan et al., 2002; Zinger et al., 2003; Torner et al., 2004). To determine whether PRL protein is present in a releasable pool in TG sensory neurons, cultured TG neurons derived either from proestrous rats (cultured in the presence of 50 nM E2) or from OVX rats (cultured without E2) were exposed to 300 nM capsaicin or 25 mM KCl buffer. The results obtained from these experiments are depicted in FIG. 2D, which indicate that a substantial amount of PRL is released from TG neurons of proestrous rats cultured in the presence of E2 upon stimulation with either capsaicin (158±12% of vehicle) or KCL (154±16% of vehicle). […] Data are presented as mean % of basal release±SEM (n=6/group, *=p<0.05 and **=p<0.01; one-way ANOVA with Bonferroni's post hoc test).
Rat trigeminal ganglia (TG) primary cultures: The TG from ovariectomized or intact female rats were quickly removed after decapitation and neuronal cultures were prepared as previously described (Fehrenbacher et al., 2005; Patwardhan et al., 2005). The trypsin treatment was omitted in TG cultures prepared for electrophysiological recording and Ca^2+ imaging. Cells were plated on 24 well Poly-D-Lysine coated plates (for iCGRP experiments), 6 well Poly-D-Lysine plates (for PRL release experiments), Poly-D-Lysine/laminin-coated coverslips (for single cell studies) or 10 cm plates (for phosphorylation experiments), respectively. The TG cultures were maintained at 37° C. and 5% CO2. […] The media were replaced at the end of 24 h and then 48 h later.
PRL Release Experiments: These experiments were performed at day 5 with TG cultures from OVX or intact female rats using Krebs buffer (NaCl 135 mM, KCl 3.5 mM, MgCl2 1 mM, NaH2PO4 1 mM, CaCl2 2.5 mM, BSA 0.1%, dextrose 3.3 mM, ascorbic acid 0.1 mM, HEPES 10 mM, thiorphan 16 μM; pH 7.4). After two initial washes, a 15 min baseline sample was collected. Cells were then exposed to 300 nM capsaicin (Sigma) or 25 mM KCl and incubated at 37° C. for an additional 15 min followed by collection of the samples. The 1 ml collected samples were lyophilized and resuspended in 250 ul of water and immediately frozen in −80° C. Frozen samples were sent to Dr. A. F. Parlow (NHPP, Harbor-UCLA) to have levels of PRL determined by a well-validated radioimmunoassay (RIA) with sensitivity range from 1-100 ng/ml. Results are representative of 6 independent experiments.

PRL-R [3] = biological target: T1, PRL-R (Rattus norvegicus, UniProt P05710); experiment: Calcium imaging, block of PRL potentiation by PRL-R antagonist; type: cell-based; details: for block of PRL potentiation of capsaicin-evoked Ca2+ influx: antagonist 800 nM co-treated with PRL 40 nM, capsaicin 30 nM
T1 construct: endogenous in cells; host or cells: primary rat trigeminal ganglion neurons
T1 sequence (P05710 20-610): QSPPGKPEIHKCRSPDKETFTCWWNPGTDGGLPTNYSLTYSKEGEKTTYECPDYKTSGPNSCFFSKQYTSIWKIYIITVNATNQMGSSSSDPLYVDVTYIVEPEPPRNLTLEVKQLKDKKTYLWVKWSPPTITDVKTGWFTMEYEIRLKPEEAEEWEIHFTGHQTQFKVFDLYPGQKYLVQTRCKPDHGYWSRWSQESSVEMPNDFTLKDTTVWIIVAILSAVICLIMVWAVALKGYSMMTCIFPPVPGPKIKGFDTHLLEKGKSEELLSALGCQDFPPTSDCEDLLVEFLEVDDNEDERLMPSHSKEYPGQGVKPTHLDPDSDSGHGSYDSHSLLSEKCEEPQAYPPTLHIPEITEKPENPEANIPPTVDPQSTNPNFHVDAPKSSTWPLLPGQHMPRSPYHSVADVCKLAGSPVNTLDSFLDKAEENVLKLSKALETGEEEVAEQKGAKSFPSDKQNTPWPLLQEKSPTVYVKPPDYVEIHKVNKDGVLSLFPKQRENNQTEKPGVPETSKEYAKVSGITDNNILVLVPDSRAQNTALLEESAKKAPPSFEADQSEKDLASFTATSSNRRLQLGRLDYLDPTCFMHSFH
Method: To determine whether PRL augmentation of capsaicin responses occurs through the PRL-R (i.e., whether PRL-signaling could account for the observed effects of PRL on nociceptors sensitization), Ca^2+ imaging experiments were performed on neurons in the presence of a molar excess of a full PRL-R antagonist (Δ 1-9-G129R-hPRL) (Bernichtein et al., 2003; Goffin et al., 2005). Cultured neurons were treated as described in the previous experiment. In addition, neurons were co-treated with PRL and the PRL-R antagonist 1-9-Δ-G 129R-hPRL (800 nM). […] Data are presented as mean % of vehicle±SEM (n=19-40, *=p<0.05; two-way ANOVA).
Calcium Imaging: TG cells cultured on coverslips were loaded with the cell-permeable calcium sensitive dye FURA 2-AM (1 ug/ml) (Molecular Probes, Eugene, Oreg.) for 30 min at 37° C. in Standard External Solution (SES) of the following composition in mM: 140 NaCl, 5 KCl, 2 CaCl2, 1 MgCl2, 10 glucose and 10 HEPES, pH 7.4. Coverslips containing cells were placed in a chamber with constant infusion of SES. Images were captured by a Nikon Eclipse TE-2000 microscope fitted with a 20×/NA 0.75 Fluor objective. Fluorescence images were collected in 5 sec intervals throughout the experiment, analyzed, and the F340/F380 ratio calculated by the Methafluor Software (MethaMorph, Web Universal Imaging Corporation, Downingtown, Pa.). Capsaicin was delivered locally to the cells, whereas PRL was delivered into the bath solution. The magnitude of calcium influx was determined by subtracting the averaged baseline 30 sec prior to the capsaicin stimulus from the peak achieved by the capsaicin stimulation for each cell (ratiometric method, ΔF340/F380).

PRL-R [4] = biological target: T1, PRL-R; experiment: Patch clamp Icap, G129R-PRL against PRL sensitization; type: cell-based
Method: (§1) Patch Clamp Electrophysiology: All recordings were performed in whole-cell voltage-clamp (Vh=−60 mV) configuration. Recordings were acquired at 22-24° C. from the somata of neurons (15-45 pF) using an Axopatch200B amplifier and pCLAMP9.0 software (Axon Instruments, Union City, Calif.). Data were filtered at 0.5 kHz and sampled at 2 kHz. Borosilicate pipettes (Sutter, Novato, Calif.) were polished to resistances of 3-5 MΩ in pipette solution. Access resistance was compensated (40-80%) to 7-10 MΩ values when appropriate. Cell diameters were calculated using d=√[100*Cm/π], where d (μm) is cell diameter and Cm (pF) is membrane capacitance.
Since it is possible that this effect is observed only in full PRL-R antagonists, it is of interest to determine the effectiveness of partial PRL-R antagonists in blocking PRL-mediated nociceptor sensitization. To this end, the ability of the partial PRL […] (G129R-PRL) to inhibit PRL-induced increase in sensitivity to capsaicin was assessed. FIG. 10 summarizes the effect of administering PRL, human G129R-PRL, or their combination, on Icap. G129R-PRL acts as either a partial or full antagonist, depending on the cellular context of the experimental system (Goffin, Bernichtein et al. 2003).

TG neurons [5] = experiment: Patch clamp, capsaicin-induced currents (Icap); type: cell-based, rat
Method: Since application of PRL rapidly increases capsaicin-induced calcium accumulation and neuropeptide release, the role of PRL in modulating capsaicin-induced currents (Icap) was examined. TRPV1 desensitization of cultured TG neurons was induced through the repeated application of 100 nM capsaicin to the cultures (Vellani et al., 2001; Bonnington and McNaughton, 2003). The sub-maximal concentration of capsaicin used was effective in inducing desensitization and permitted the investigation PRL-evoked re-sensitization or further sensitization of TRPV1. […] Data are presented as mean±SEM of PRL-treated ΔIcap (3rd Icap-2^ndIcap) normalized to vehicle treated ΔIcap, (n=8-12/group, *=p<0.05 and **=p<0.01; two-way ANOVA). […] Acutely dissociated TG neurons from female rats were locally pretreated with vehicle or PRL (40 nM) for 60 sec, washed for 60 sec and subjected to a single capsaicin pulse (40 sec, 0.1 nM-5 μM). Data are shown as mean±SEM (n=12-20/group, *=p<0.05 and ***=p<0.001 vehicle vs. PRL; two-way ANOVA). FIGS. 5C and 5D depict representative traces of Icap recordings from intact (FIG. 5C) and OVX (FIG. 5D) female rat TG neurons. Concentration of applied CAP and PRL are indicated. The duration CAP and PRL treatment was 30 sec and 60 sec, respectively. The magnitude of the second capsaicin-evoked inward currents (Icap) peak was subtracted from the third Icap peak to calculate the difference (ΔIcap). Data were normalized to the vehicle treated ΔIcap.
as §1
Standard external solution (SES) had the composition as described above. […] Drugs were applied using a fast, computer controlled pressure-driven 8-channel system (ValveLink8; AutoMate Scientific, San Francisco, Calif.).
FIG. 11B summarizes the effect of adding rhPRL on Icap of cultured TG neurons from male, female and OVX female rats. Number of recorded neurons and neurons in which effects were observed are indicated above the bars. The recordings were performed in whole-cell voltage clamp c(Vh=−60 mV) configuration. Solutions are SES and SIS.

## C[C@]12CC[C@@H]3c4ccc(OC(=O)c5ccccc5)cc4CC[C@H]3[C@@H]1CC[C@@H]2O [17-beta-estradiol 3-benzoate]
[1]; 2 μg/kg s.c. daily for 10 days
  plasma estradiol levels: 1.89 ± 0.36 pg/mL
[1]; 20 μg/kg s.c. daily for 10 days
  plasma estradiol levels: 59 ± 17.1 pg/mL
[1]; 80 μg/kg s.c. daily for 10 days
  plasma estradiol levels: 110 ± 36.6 pg/mL

## [Cl-].[K+] [KCL, KCl]
TG neurons [2]
  release of immunoreactive PRL: no detectable release
  PRL released from TG neurons: 154±16 % of vehicle

## COc1cc(CNC(=O)CCCC/C=C/C(C)C)ccc1O [capsaicin]
TG neurons [2]
  release of immunoreactive PRL: no detectable release
  PRL released from TG neurons: 158±12 % of vehicle

B1: Δ 1-9-G129R-hPRL: full PRL-R antagonist, human PRL variant synthesized as described (Bernichtein et al., 2003; Goffin et al., 2005) (protein)
chain: LPICPGGAARCQVTLRDLFDRAVVLSHYIHNLSSEMFSEFDKRYTHGRGFITKAINSCHTSSLATPEDKEQAQQMNQKDFLSLIVSILRSWNEPLYHLVTEVRGMQEAPEAILSKAVEIEEQTKRLLERMELIVSQVHPETKENEIYPVWSGLPSLQMADEESRLSAYYNLLHCLRRDSHKIDNYLKLLKCRIIHNNNC
PRL-R [3]; 800 nM, without PRL
  effect of antagonist on its own on capsaicin-evoked Ca2+ influx: had no effect on its own
PRL-R [3]
  block of PRL potentiation of capsaicin-evoked Ca2+ influx: significantly blocked PRL potentiation of capsaicin-evoked Ca^2+ influx
PRL-R [3]; listed as 1-9-Δ-G129R-hPRL
  block of PRL potentiation of capsaicin-evoked Ca2+ influx: significantly blocked

B2: G129R-PRL: human prolactin variant, partial or full PRL-R antagonist / partial agonist; sequence in FIG. 9B (SEQ ID NO: 48) (protein, listed as Homo sapiens)
chain: B1 chain
PRL-R [4]; 3 of 3 examined neurons
  effect on Icap in the absence of rPRL: displayed partial agonist effects
PRL-R [4]; G129R-PRL 16 nM co-applied with rPRL 4 nM, observed in 6 of 7 neurons
  reduction of the PRL effect on Icap: about 40%

B3: rhPRL: recombinant human PRL (protein, UniProt P01236 29-227, looked up)
Prolactin: B1 chain with R129G
TG neurons [5]; cultured TG neurons from male and female rats, capsaicin 100 nM (FIG. 11A)
  sensitization of capsaicin-evoked Icap: is able to sensitize cultured neurons isolated from male and female TG neurons
TG neurons [5]; male and female TG neurons, varying rhPRL concentrations
  concentration dependence of Icap increase: dose-dependent increases in Icap

— patent US7507716B2, “Method for treating pain with prolactin antagonists” (Board of Regents, The University of Texas System, priority 2005, dated 2009)
